Data published in patent publication US20220267374A1, “IMMUNITY INDUCER AND PHARMACEUTICAL COMPOSITION FOR PREVENTING OR TREATING AGING-RELATED DISEASES” (priority 2019, published 2022).
Ends that are not written are not given here.

Legend:
GPNMB-positive cells [1] = assay: Analysis of Gpnmb-dependent luciferase activity (in vivo IVIS imaging); parameters: species or system Gpnmb-DTR mouse; conditions: HFD-fed Gpnmb-DTR mouse, 16 weeks of age, s.c. vaccination at 8 weeks of age; vs control vaccine; FIG. 2B
Procedure: Gpnmb-DTR mouse bred by feeding normal diet or HFD for 4 weeks, and Gpnmb-DTR mouse bred by feeding HFD for 4 weeks, and then injecting DT (50 μg/kg body weight) at 2-week intervals (12 weeks of age and 14 weeks of age) intraperitoneally twice while continuing to feed HFD (16 weeks of age) were subjected to in vivo luciferase imaging analysis using the IVIS imaging system (Perkin Elmer). Mice were shaved ventrally, anesthetized with isoflurane (Wako Pure Chemicals Industries), and injected intraperitoneally with luciferin (150 mg/kg body weight) according to the manufacturer's instructions (Vivo-Glo; Promega). Luciferase activity was monitored 5 minutes after luciferin administration. Signals were analyzed using Living Image software (Perkin Elmer) to quantify luciferase activity. In FIG. 1B, “Before” is a Gpnmb-DTR mouse before HFD was fed (6 weeks of age), “HFD” is a Gpnmb-DTR mouse that was fed with HFD from 6 weeks of age and bred for 6 weeks (12 weeks of age), and “After DT” is a Gpnmb-DTR mouse that was bred by feeding HFD for 4 weeks and then injecting DT (50 μg/kg body weight) at 2-week intervals (12 weeks of age and 14 weeks of age) intraperitoneally twice while continuing to feed HFD (16 weeks of age). […]

[2] = system: replicative aging adipose precursor cells derived from C57BL/6 mice; assay: ADCC (Antibody-Dependent-Cellular-Cytotoxicity) activity analysis; format: cell-based; conditions: purified IgG from mice administered with the vaccine; NK effector cells/target cells 1/1; LDH release, 4 hours; FIG. 2E
Procedure: ADCC (Antibody-Dependent-Cellular-Cytotoxicity) was evaluated using a CytoTox 96 non-radioactive cytotoxicity assay kit (Promega). Specifically, natural killer (NK) cells were isolated from C57BL/6 mice as effector cells using Ficoll-Paque Plus (GE Healthcare) and EasySep mouse NK cell isolation kit (STEMCELL). Subsequently, as target cells, replicative aging adipose precursor cells derived from C57BL/6 mice were seeded on a 96-well plate so as to have 10^4 cells per well. Subsequently, purified IgG antibody obtained from C57BL/6 mice bred by feeding HFD from 4 weeks of age and administered with peptide vaccine 1 or a control vaccine by subcutaneous injection at a time point of 8 weeks of age was added to each well, and incubated at 37° C. for 30 minutes. After incubation, NK cells were seeded in each well so that a ratio of the cell number of effector cells to the target cells (effector cells/target cells) was 1/1. Subsequently, the plates were incubated at 37° C. for an additional 4 hours. Subsequently, lactate dehydrogenase released in a supernatant was detected using a microtiter plate reader (iMark microplate reader, Bio-Rad). To evaluate cell death, a ratio of lysed cells to the total number of cultured cells was calculated. In FIG. 2E, “Cont vac” is a C57BL/6 mouse administered with the control vaccine, and “Gpnmb vac” is a C57BL/6 mouse administered with peptide vaccine 1.

GPNMB-positive cells [3] = assay: Gpnmb-dependent luciferase activity in the aorta; format: in vivo, ApoE/Gpnmb-DTR mice; conditions: HFD from 4 to 16 weeks of age, s.c. vaccination at 8 weeks of age; vs control vaccine; FIG. 2J
Procedure: Gpnmb-DTR mouse bred by feeding normal diet or HFD for 4 weeks, and Gpnmb-DTR mouse bred by feeding HFD for 4 weeks, and then injecting DT (50 μg/kg body weight) at 2-week intervals (12 weeks of age and 14 weeks of age) intraperitoneally twice while continuing to feed HFD (16 weeks of age) were subjected to in vivo luciferase imaging analysis using the IVIS imaging system (Perkin Elmer). Mice were shaved ventrally, anesthetized with isoflurane (Wako Pure Chemicals Industries), and injected intraperitoneally with luciferin (150 mg/kg body weight) according to the manufacturer's instructions (Vivo-Glo; Promega). Luciferase activity was monitored 5 minutes after luciferin administration. Signals were analyzed using Living Image software (Perkin Elmer) to quantify luciferase activity. […]
Detection of arteriosclerotic plaque and analysis of Gpnmb-dependent luciferase activity were performed using the same method as in “6.” and “2.” of Reference Example 1, except that ApoE/Gpnmb-DTR mice (16 weeks of age) bred while feeding HFD for 12 weeks from 4 to 16 weeks of age and administered with peptide vaccine 1 or a control vaccine by subcutaneous injection at a time point of 8 weeks of age were used (refer to FIG. 2J). The Oil Red O stained region was quantified by Image-J software (refer to FIG. 2K). […]

Open field test = format: in vivo, C57BL/6 mice; conditions: normal diet, s.c. vaccination at 50 weeks of age; vs control vaccine; FIG. 2L
Procedure: C57BL/6 mice bred by feeding a normal diet and administered with peptide vaccine 1 or a control vaccine by subcutaneous injection at a time point of 50 weeks of age were used. Open field tests were performed before and after vaccination (50 and 70 weeks of age). The open field test is a test that measures voluntary activity in a novel environment. Each mouse was placed in an open field and tested for 6 minutes. The total action time (seconds) and average speed (cm/sec) of each mouse during the test were measured. The difference between the measurement results at 50 weeks of age and the measurement results at 70 weeks of age is shown in FIG. 2L. In FIG. 2L, “Cont vac” is a C57BL/6 mouse administered with the control vaccine, and “Gpnmb vac” is a C57BL/6 mouse administered with the peptide vaccine 1.

Sequence: RRGDGRWKD (also: KLH conjugate; listed as Mus musculus) [peptide vaccine 1, peptide of positions 63 to 71 of mouse GPNMB protein]
- Gpnmb-dependent luciferase activity (GPNMB-positive cells [1]): decreased
- antibody-dependent cellular cytotoxicity (ADCC activity) [2]: exhibits antibody-dependent cellular cytotoxicity (ADCC activity)
- Gpnmb-dependent luciferase activity in the aorta (GPNMB-positive cells [3]): decreased
- results in the open field test (total action time, average speed; difference 50 vs 70 weeks of age) (Open field test): significantly improved
